Patent publication US20080160108A1, “Method of treating muscular dystrophies with an inhibitor of histone deacetylase” (Centre National de la Recherche Scientifique- CNRS, a …, priority 2002, published 2008)

Columns and labels:
utrophin [1] = assay: Utrophin in muscle of healthy OF1 mice injected i.p.; format: in vivo, mouse
Procedure: OF1 mice were injected daily with i.p. and for 6 weeks with 100, 200 or 300 mg/kg/day either with arginine butyrate or with physiological serum. No utrophin was observed on the membrane in the muscle of the mice injected with the physiological serum used as control (“non-treated”). […] This augmentation is dosage-dependent. The induction of utrophin under the muscular membrane is significant probably on account of an additive effect of the arginine via the NO and of the butyrate via the activation of the transcription of the utrophin gene.

utrophin [2] = assay: Utrophin in muscle of mdx mice injected i.p., immunofluorescence and Western blot; format: in vivo, mouse; conditions: 200 mg/kg/day i.p. daily for 6 weeks
Procedure: Mdx mice were injected daily i.p. and for 6 weeks with 200 mg/kg/day either with butyrate or with L-arginine or with physiological serum. It is observed that the utrophin is poorly expressed in the muscle of the mdx mice injected with physiological serum used as control. […] It should be noted that the augmentation of utrophin is greater in the case of the mice injected with butyrate. The augmentation of the utrophin was quantified in Western blot.

utrophin [3] = assay: Utrophin expression in myotubes of mdx mice, Western blot; format: cell-based, mouse; conditions: myotubes of dystrophic mdx mice (line xlt), 5 mM, 48 h
Procedure: Myotubes of dystrophic mdx mice (line xlt) are treated with 5 mM of butyrate for 48 h. The augmentation of utrophin is then quantified in Western blot.

arginine butyrate
dose dependence of the augmentation of utrophin (utrophin [1]; OF1 mice, 100, 200 or 300 mg/kg/day i.p. daily for 6 weeks): dosage-dependent
utrophin localisation in muscle (utrophin [1]; OF1 mice, 100, 200 or 300 mg/kg/day i.p. daily for 6 weeks, vs physiological serum control): utrophin appears very clearly under the muscular membrane
quantity of utrophin (utrophin [1]; healthy muscles and mdx mouse (FIG. 4), summary statement): significantly augments the quantity of utrophin

N=C(N)NCCC[C@H](N)C(=O)O [L-arginine]
utrophin localisation in muscle (utrophin [2]; vs physiological serum control): the utrophin appears under the muscular membrane

CCCC(=O)O [butyrate]
augmentation of expression of utrophin (factor, intensity of Western blot bands) (utrophin [3]): 2
augmentation of expression of utrophin (factor, intensity of Western blot bands) (utrophin [2]): 2
